Results taken from the SangsterLogP compilation.

assay: method code SF-AS, from PMID: 43458

logP	SMILES
1.8	CCCOC(=O)c1cc(O)c(O)c(O)c1
2.41	CCCCOC(=O)c1cc(O)c(O)c(O)c1
1.3	CCOC(=O)c1cc(O)c(O)c(O)c1

The remaining lines, values behind:

SMILES	logP
CC(C)COC(=O)c1cc(O)c(O)c(O)c1	2.46
CCCCCCCCOC(=O)c1cc(O)c(O)c(O)c1	3.66
COC(=O)c1cc(O)c(O)c(O)c1	0.86
